Assays:
[1] = system: HT-29 (colon adenocarcinoma); assay: MTT cell viability assay, HT-29; assay type: cell-based; conditions: Homo sapiens, HT-29, 48 h, 2 days incubation, average ±SD of three experiments
Protocol: (§1) The effects of triazole derivatives 1–26 on the cell viability were determined by MTT assay, and the IC50 values were determined toward the human tumor cell lines HT-29 (colon adenocarcinoma), A-549 (lung adenocarcinoma), and MCF-7 (breast adenocarcinoma), as well as toward the non-tumor cell line HEK-293 (human embryonic kidney cells).
(§2) In 96-well plates, 3 × 10^3 (A549 and HEK-293) or 5 × 10^3 (HT-29, MCF-7) cells per well were incubated with serial dilutions of the tested compounds in a total volume of 100 μL of their growth media. The 3-(4,5-dimethylthiazol-2-yl)-2,5-diphenyltetrazolium bromide (MTT; Sigma Chemical Co.) dye reduction assay in 96-well microplates was used. After 2 days of incubation (37 °C, 5% CO2 in a humid atmosphere), 10 μL of MTT (5 mg/mL in phosphate-buffered saline, PBS) was added to each well, and the plate was incubated for a further 3 h (37 °C). After that, the supernatant was discarded and replaced by 100 µL of DMSO to dissolve formazan crystals. The absorbance was then read at 550 nm by spectro-photometry. For all concentrations of compound, cell viability was expressed as the percentage of the ratio between the mean absorbance of treated cells and the mean absorbance of untreated cells. Three independent experiments were performed, and the IC50 values (i.e., concentration half inhibiting cell proliferation) were graphically determined by using GraphPad Prism 4 software (2019).

[2] = system: A-549 (lung adenocarcinoma); assay: MTT cell viability assay, A-549; assay type: cell-based; conditions: Homo sapiens, A549, 48 h, 2 days incubation, average ±SD of three experiments
Protocol: as §1, §2

[3] = system: MCF-7 (breast adenocarcinoma); assay: MTT cell viability assay, MCF-7; assay type: cell-based; conditions: Homo sapiens, MCF7, 48 h, 2 days incubation, average ±SD of three experiments
Protocol: as §1, §2

[4] = system: HEK-293 (human embryonic kidney cells); assay: MTT cell viability assay, HEK-293; assay type: cell-based; conditions: HEK293, 48 h, 2 days incubation, non-tumor cell line, average ±SD of three experiments
Protocol: as §1, §2

membrane PD-L1 (mPD-L1) = target: T1, membrane PD-L1 (mPD-L1) (Homo sapiens, UniProt Q9NZQ7); assay: Membrane PD-L1 relative quantification by flow cytometry; assay type: cell-based; conditions: 24 h, 100 or 10 μM (Table 7), percentage referred to DMSO control
T1 construct: endogenous in cells; host or cells: HT-29, A-549, MCF-7
Protocol: Based on antiproliferative activity of synthetized derivatives, we decided to study the effect of the amino derivatives 14–26 on the expression of both membrane targets PD-L1 and VEGFR-2 (mPD-L1 and mVEGFR-2). The evaluation was performed on three cancer cell lines (HT-29, A-549, and MCF-7) by flow cytometry after 24 h of treatment with the corresponding compounds. Compounds were used at a 100 or 10 μM concentration depending on their IC50 value (see Table 1 in Materials and Methods section). The presence of both targets in the membrane was relatively determined by using DMSO-treated cells as a negative control.
(§3) To study the effect of the compounds on every biological target in cancer cell lines the compounds were used at a 100 or 10 μM dose, depending on their IC50 and the treated cell line.
(§4) For the assay, 10^5 cells per well were incubated for 24 h with the corresponding dose of the tested compound in a total volume of 500 μL of their growth media.
To detect membrane PD-L1 and VEGFR-2, after the cell treatments, they were collected, fixed with 4% in PBS paraformaldehyde, and stained with FITC Mouse monoclonal Anti-Human VEGFR-2 (ab184903) and Alexa Fluor® 647 Rabbit monoclonal Anti-PD-L1 (ab215251).

[5] = target: T2, membrane VEGFR-2 (mVEGFR-2) (Homo sapiens, UniProt P35968); assay: Membrane VEGFR-2 relative quantification by flow cytometry; assay type: cell-based; conditions: 24 h, 100 or 10 μM (Table 7), sorafenib 10 μM, percentage referred to DMSO control
T2 construct: endogenous in cells; host or cells: HT-29, A-549, MCF-7
Protocol: The presence of both targets in the membrane was relatively determined by using DMSO-treated cells as a negative control.
as §4

total PD-L1 (tPD-L1) = target: T3, total PD-L1 (tPD-L1) (Homo sapiens, UniProt Q9NZQ7); assay: Total PD-L1 relative quantification by flow cytometry; assay type: cell-based; conditions: for tPD-L1 relative detection, A-549 / tPD-L1 relative detection, HT-29 / tPD-L1 relative detection, MCF-7: 24 h, 100 or 10 μM (Table 7), relative to DMSO control
T3 construct: endogenous in cells; host or cells: HT-29, A-549, MCF-7
Protocol: (§5) The study was carried out again on HT-29, A-549, and MCF-7 cell lines by flow cytometry after 24 h of treatment with the corresponding compounds. The presence of the targets in the whole cell were relatively determined by using DMSO-treated cells as a negative control and BMS-8 as a positive one for PD-L1 (Table 3).
as §3, §4
(§6) For the detection of total PD-L1, VEGFR-2, and c-Myc, the procedure was the same as for membrane targets, but after fixation, a treatment with 0,5% in PBS TritonTM X-100 was performed. The antibodies used for PD-L1 and VEGFR-2 were the ones previously described, and for the detection of c-Myc, it was FITC Rabbit monoclonal anti-c-Myc (ab223913).

c-Myc = c-Myc relative quantification by flow cytometry; assay type: cell-based, human; conditions: for c-Myc relative detection, A-549 / c-Myc relative detection, HT-29 / c-Myc relative detection, MCF-7: 24 h, 100 or 10 μM (Table 7), relative to DMSO control
Protocol: as §5, §3, §4, §6

[6] = HT-29, compared to non-treated cells

T3 sequence (Q9NZQ7 19-290): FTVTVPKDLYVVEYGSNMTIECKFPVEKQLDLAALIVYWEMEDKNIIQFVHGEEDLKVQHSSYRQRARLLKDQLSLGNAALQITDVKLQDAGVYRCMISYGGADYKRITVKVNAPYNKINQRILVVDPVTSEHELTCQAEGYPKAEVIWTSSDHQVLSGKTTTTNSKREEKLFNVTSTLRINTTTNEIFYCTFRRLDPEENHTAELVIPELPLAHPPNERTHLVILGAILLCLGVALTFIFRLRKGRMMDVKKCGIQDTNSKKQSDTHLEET
T1 sequence (Q9NZQ7 19-290): as above
T2 sequence (P35968 20-1356): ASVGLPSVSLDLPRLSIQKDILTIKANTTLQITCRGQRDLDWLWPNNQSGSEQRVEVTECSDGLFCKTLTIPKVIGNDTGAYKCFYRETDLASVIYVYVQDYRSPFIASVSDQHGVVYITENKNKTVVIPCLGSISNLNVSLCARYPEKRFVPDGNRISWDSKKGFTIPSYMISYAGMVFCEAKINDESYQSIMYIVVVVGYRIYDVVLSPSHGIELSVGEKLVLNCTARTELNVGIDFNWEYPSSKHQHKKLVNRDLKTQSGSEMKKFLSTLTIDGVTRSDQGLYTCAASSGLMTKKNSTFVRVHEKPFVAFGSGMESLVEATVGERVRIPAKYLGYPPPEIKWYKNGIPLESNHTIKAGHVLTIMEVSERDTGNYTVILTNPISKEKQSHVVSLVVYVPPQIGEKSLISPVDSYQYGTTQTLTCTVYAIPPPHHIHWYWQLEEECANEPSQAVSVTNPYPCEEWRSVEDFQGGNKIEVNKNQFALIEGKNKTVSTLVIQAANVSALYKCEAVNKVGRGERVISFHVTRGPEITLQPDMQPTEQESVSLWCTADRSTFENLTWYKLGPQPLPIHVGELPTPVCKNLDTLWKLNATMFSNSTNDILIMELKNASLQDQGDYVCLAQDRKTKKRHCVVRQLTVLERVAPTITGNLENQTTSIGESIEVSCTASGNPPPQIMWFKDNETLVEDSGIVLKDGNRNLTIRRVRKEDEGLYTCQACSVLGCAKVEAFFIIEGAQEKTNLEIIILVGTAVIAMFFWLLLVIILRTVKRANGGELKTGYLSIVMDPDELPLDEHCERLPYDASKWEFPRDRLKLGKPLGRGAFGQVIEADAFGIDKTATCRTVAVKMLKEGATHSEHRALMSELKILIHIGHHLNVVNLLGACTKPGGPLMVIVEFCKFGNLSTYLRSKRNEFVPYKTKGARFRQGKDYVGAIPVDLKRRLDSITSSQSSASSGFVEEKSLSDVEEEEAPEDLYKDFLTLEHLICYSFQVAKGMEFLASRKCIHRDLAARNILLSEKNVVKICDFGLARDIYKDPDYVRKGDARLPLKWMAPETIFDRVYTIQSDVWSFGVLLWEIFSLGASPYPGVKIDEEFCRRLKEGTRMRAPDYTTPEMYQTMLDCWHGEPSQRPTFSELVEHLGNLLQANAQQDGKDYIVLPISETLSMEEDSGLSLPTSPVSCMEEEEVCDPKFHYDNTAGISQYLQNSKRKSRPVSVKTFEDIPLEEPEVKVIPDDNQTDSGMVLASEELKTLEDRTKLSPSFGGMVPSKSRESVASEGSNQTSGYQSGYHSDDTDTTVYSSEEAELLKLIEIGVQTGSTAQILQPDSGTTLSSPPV

Structure (SMILES)	melting point [°C]	IC50 [1] [µM]	IC50 [2] [µM]	IC50 [3] [µM]	IC50 [4] [µM]	mPD-L1 relative detection, A-549 (membrane PD-L1 (mPD-L1)) [%]	mPD-L1 relative detection, HT-29 (membrane PD-L1 (mPD-L1)) [%]	mPD-L1 relative detection, MCF-7 (membrane PD-L1 (mPD-L1)) [%]	mVEGFR-2 relative detection, A-549 [5] [%]	mVEGFR-2 relative detection, HT-29 [5] [%]	mVEGFR-2 relative detection, MCF-7 [5] [%]	tPD-L1 relative detection, A-549 (total PD-L1 (tPD-L1); A-549) [%]	tPD-L1 relative detection, HT-29 (total PD-L1 (tPD-L1); HT-29) [%]	tPD-L1 relative detection, MCF-7 (total PD-L1 (tPD-L1)) [%]	c-Myc relative detection, A-549 (c-Myc) [%]	Inhibition of c-Myc, A-549 (c-Myc; compared to non-treated cells)	c-Myc relative detection, HT-29 (c-Myc; HT-29) [%]	c-Myc relative detection, MCF-7 (c-Myc; MCF-7) [%]	also measured
Brc1ccc(Cn2cc(-c3ccccc3)nn2)cc1 [Compound 13, 1-(4-bromobenzyl)-4-phenyl-1H-1,2,3-triazole]	153 to 155																		
Nc1ccc(-c2cn(Cc3ccc(Br)cc3)nn2)cc1 [Compound 26, 4-(1-(4-bromobenzyl)-1H-1,2,3-triazol-4-yl)aniline]	169 to 170	14 ± 6	8 ± 2	8 ± 1	> 100	76 ± 4	94 ± 15	84 ± 23	>100	85 ± 7	>100	80 ± 12	51 ± 2	>100	82 ± 4	20%	>100	64 ± 6	
COc1ccc(Cn2cc(-c3ccc(N)cc3)nn2)cc1 [Compound 20, 4-(1-(4-methoxybenzyl)-1H-1,2,3-triazol-4-yl)aniline]	132 to 134	> 100	> 100	6 ± 4	> 100	95 ± 8	>100	91 ± 9	>100	92 ± 14	>100	54 ± 6	67 ± 3	>100	69 ± 9	around 30%	74 ± 23	62 ± 7	Inhibition of total PD-L1, A-549 (total PD-L1 (tPD-L1); A-549, compared to non-treated cells): ~50%; Inhibition/downregulation of total PD-L1, HT-29 (total PD-L1 (tPD-L1); [6]): around 35%; Inhibition of c-Myc, HT-29 (c-Myc; [6]): around 30%; Inhibition of c-Myc, MCF-7 (c-Myc; MCF-7): around 30%
CNC(=O)c1cc(Oc2ccc(NC(=O)Nc3ccc(Cl)c(C(F)(F)F)c3)cc2)ccn1 [Sorafenib, sorafenib, reference compound]		17 ± 4	27 ± 2	14 ± 4	5														
Clc1cccc(Cn2cc(-c3ccccc3)nn2)c1 [Compound 9, 1-(3-chlorobenzyl)-4-phenyl-1H-1,2,3-triazole]	108 to 110																		
Cc1ccccc1Cn1cc(-c2ccc(N)cc2)nn1 [Compound 15, 4-(1-(2-methylbenzyl)-1H-1,2,3-triazol-4-yl)aniline]	131 to 133	7 ± 1	4 ± 3	4 ± 1	> 100	90 ± 6	74 ± 13	84 ± 11	>100	87 ± 1	>100	>100	>100	>100	>100		>100	>100	

— article PMC9266368, “Synthesis and Biological Evaluation of Small Molecules as Potential Anticancer Multitarget Agents” (International Journal of Molecular Sciences, 2022)
